From publication PMC9598282 (Antibiotics, 2022)
Converted amounts (≈) assume the structure as drawn. “And” between values parts separate entries of the source, which are not always exact repeats. Equal entries are not always repeated. Bridge positions count the residues as written; N and C are the ends. Square brackets hold non-standard residues; d marks the D form. Peptide text beside a SMILES is read from it. * marks the point of attachment. X1 = CC[C@H](C)CCCCC(=O)*; Dab = NCC[C@H](N)C(=O)O

What was measured:
[1] = test system: E. coli 107115; format: cell-based, Escherichia coli; conditions: colistin-susceptible MDR isolate
Procedure: (§1) For the preparation of the bacterial solution, overnight grown culture was diluted in 0.85% saline solution, adjusted to 0.5 McFarland turbidity and further diluted in Mueller–Hinton broth for inoculation to a final concentration of 5 × 10^5 colony forming units/mL (CFU/mL). The agents were serially diluted two-fold in a 96-well plate, and equal volumes of bacterial solution were subsequently added to the designated wells. The well consisting of bacterial solution served as the positive control, while the well containing only media served as the negative control. The plate was then incubated at 37 °C for 18 h. After incubation, an Emax Plus microplate reader (Molecular Devices, Union City, CA, USA) was used to measure the optical density (OD) at a wavelength of 590 nm to confirm the turbidity. The antibacterial activity corresponded to the MIC, which is defined as the lowest concentration of the agent necessary to inhibit visible bacterial growth.

[2] = test system: E. coli 94393; format: cell-based, Escherichia coli; conditions: colistin-resistant isolate
Procedure: as §1

[3] = test system: E. coli 94474; format: cell-based, Escherichia coli; conditions: colistin-resistant isolate
Procedure: as §1

[4] = test system: P. aeruginosa PAO1; test: microbe, parasite or virus in culture; format: cell-based, Pseudomonas aeruginosa
In short: (§2)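 Two-fold serial dilutions of antibiotic and guanidinylated polymyxin adjuvant crossed in checkerboard against bacterial inoculum prepared as for susceptibility testing; 18 h at 37 °C, growth read as OD590. FIC index = sum of each agent's MIC in combination divided by its MIC alone; ≤0.5 synergy, >0.5–4 additivity, >4 antagonism.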

[5] = test system: P. aeruginosa 101243; format: cell-based, Pseudomonas aeruginosa; conditions: colistin-resistant isolate
Procedure: as §1

[6] = test system: P. aeruginosa P259-96918; format: cell-based, Pseudomonas aeruginosa; conditions: colistin-susceptible MDR isolate
Procedure: as §1

[7] = test system: P. aeruginosa P262-101856; format: cell-based, Pseudomonas aeruginosa; conditions: colistin-susceptible MDR isolate
Procedure: as §1

[8] = test system: P. aeruginosa 114228; format: cell-based, Pseudomonas aeruginosa; conditions: colistin-resistant isolate
Procedure: as §1

[9] = test system: P. aeruginosa P264-104354; format: cell-based, Pseudomonas aeruginosa; conditions: colistin-susceptible MDR isolate
Procedure: as §1

[10] = test system: K. pneumoniae 113250; format: cell-based, Klebsiella pneumoniae; conditions: colistin-resistant isolate
Procedure: as §1

[11] = test system: K. pneumoniae 113254; format: cell-based, Klebsiella pneumoniae; conditions: colistin-resistant isolate
Procedure: as §1

[12] = test system: A. baumannii AB031; format: cell-based, Acinetobacter baumannii; conditions: colistin-susceptible MDR isolate
Procedure: as §1

[13] = test system: A. baumannii AB027; format: cell-based, Acinetobacter baumannii; conditions: colistin-susceptible MDR isolate
Procedure: as §1

[14] = test system: A. baumannii ATCC 17978; format: cell-based, Acinetobacter baumannii; conditions: wild-type
Procedure: as §1

[15] = test system: A. baumannii 92247; format: cell-based, Acinetobacter baumannii; conditions: colistin-resistant isolate
Procedure: as §1

[16] = test system: A. baumannii 110193; format: cell-based, Acinetobacter baumannii; conditions: colistin-susceptible MDR isolate
Procedure: as §1

[17] = test system: A. baumannii LAC-4; format: cell-based, Acinetobacter baumannii; conditions: colistin-susceptible MDR isolate
Procedure: as §1

[18] = test system: P. aeruginosa PA 86052; test: MIC, broth microdilution; format: cell-based, Pseudomonas aeruginosa; conditions: β-lactamase harboring isolate
Procedure: as §1

[19] = test system: P. aeruginosa PA 107092; test: MIC, broth microdilution; format: cell-based, Pseudomonas aeruginosa; conditions: β-lactamase harboring isolate
Procedure: as §1

[20] = test system: P. aeruginosa PA 108590; test: MIC, broth microdilution; format: cell-based, Pseudomonas aeruginosa; conditions: β-lactamase harboring isolate
Procedure: as §1

[21] = test system: P. aeruginosa PA 109084; test: MIC, broth microdilution; format: cell-based, Pseudomonas aeruginosa; conditions: β-lactamase harboring isolate
Procedure: as §1

[22] = test system: P. aeruginosa PA 88949; test: MIC, broth microdilution; format: cell-based, Pseudomonas aeruginosa; conditions: β-lactamase harboring isolate
Procedure: as §1

[23] = test system: E. coli ATCC 25922; test: microbe, parasite or virus in culture; format: cell-based, Escherichia coli
In short: as §2

[24] = test system: E. cloacae 121187; format: cell-based, Enterobacter cloacae; conditions: colistin-resistant isolate
Procedure: as §1

[25] = test system: E. cloacae 118564; format: cell-based, Enterobacter cloacae; conditions: colistin-resistant isolate
Procedure: as §1

[26] = test system: A. baumannii ATCC 17978; test: microbe, parasite or virus in culture; format: cell-based, Acinetobacter baumannii
In short: as §2

[27] = agent alone, one value per checkerboard plate

CC[C@H](C)CCCCC(=O)N[C@@H](CCN)C(=O)N[C@H](C(=O)N[C@@H](CCN)C(=O)N[C@H]1CCNC(=O)[C@H]([C@@H](C)O)NC(=O)[C@H](CCN)NC(=O)[C@H](CCN)NC(=O)[C@H](CC(C)C)NC(=O)[C@@H](CC(C)C)NC(=O)[C@H](CCN)NC1=O)[C@@H](C)O [Colistin, colistin] (X1-[Dab]T[Dab][Dab][Dab][dL]L[Dab][Dab]T; lactam 4-C (inferred); N-terminus assumed)
MIC [1]: 0.125 µg/mL (≈ 0.107 µM)
MIC [2]: 4 µg/mL (≈ 3.42 µM)
MIC [3]: 16 µg/mL (≈ 13.7 µM)
Absolute MIC of antibiotic at 4 μg/mL GCol [4]: 0.5 µg/mL
Absolute MIC of antibiotic at 4 μg/mL GPMB [4]: 1 µg/mL
MIC alone [4, 27]: 0.5 µg/mL and 1 µg/mL
Fold-potentiation of antibiotic ([4]; at 4 μg/mL GCol): 1
Fold-potentiation of antibiotic ([4]; at 4 μg/mL GPMB): 1
MIC [5]: 1024 µg/mL (≈ 876 µM)
MIC [6]: 0.5 µg/mL (≈ 0.428 µM)
MIC [7]: 2 µg/mL (≈ 1.71 µM)
MIC [8]: 4 µg/mL (≈ 3.42 µM)
MIC [9]: 1 µg/mL (≈ 0.855 µM)
MIC [10]: 256 µg/mL (≈ 219 µM)
MIC [11]: 256 µg/mL (≈ 219 µM)
MIC [12]: 0.25 µg/mL (≈ 0.214 µM)
MIC [13]: 0.25 µg/mL (≈ 0.214 µM)
MIC [14]: 0.5 µg/mL (≈ 0.428 µM)
MIC [15]: 4 µg/mL (≈ 3.42 µM)
MIC [16]: 0.5 µg/mL (≈ 0.428 µM)
MIC [17]: 0.125 µg/mL (≈ 0.107 µM)
MIC [18]: 1 µg/mL (≈ 0.855 µM)
MIC [19]: 0.5 µg/mL (≈ 0.428 µM)
MIC [20]: 1 µg/mL (≈ 0.855 µM)
MIC [21]: 0.5 µg/mL (≈ 0.428 µM)
MIC [22]: 1 µg/mL (≈ 0.855 µM)
Absolute MIC of antibiotic at 2 μg/mL GCol [23]: 0.125 µg/mL
Absolute MIC of antibiotic at 2 μg/mL GPMB [23]: 0.0313 µg/mL
FIC index antibiotic + GCol [23]: 1.016
FIC index antibiotic + GPMB [23]: 0.25
MIC alone [23, 27]: 0.125 µg/mL and 0.25 µg/mL
Fold-potentiation of antibiotic ([23]; at 2 μg/mL GCol): 1
Fold-potentiation of antibiotic ([23]; at 2 μg/mL GPMB): 8
MIC [24]: >128 µg/mL
MIC [25]: >128 µg/mL
Absolute MIC of antibiotic at 2 μg/mL GCol [26]: 0.25 µg/mL
FIC index antibiotic + GPMB [26]: 1.016
MIC alone [26, 27]: 0.25 µg/mL
Fold-potentiation of antibiotic ([26]; at 2 μg/mL GCol): 1
Fold-potentiation of antibiotic ([26]; at 2 μg/mL GPMB): 1
